# Entries after “also recorded” stand apart in the source; their conditions may differ.
# Key:
# [1] = test system: rats; experiment: Telemetric ECG, QTc interval before and 6 hours after i.v. injection; format: in vivo, rat; conditions: given with Shh
# Experimental: (§1) Rats were implanted with DSI PhysioTel™ Transmitter (CTA-F40, Data Sciences International, Saint-Paul, Minn., USA), fifteen days before starting experiments. After recovery, ECGs were recorded by using a signal transmitter-receiver (RPC-1; DSI) connected to a data acquisition system (IOX2; EMKA Technologies). The data were collected continuously at a sampling rate of 1,000 Hz. Thus, ECGs were recorded in rats before and 6 hours after i.v. injection of Shh, Shh and hexamethonium, MPs, Shh and cyclopamine, Shh and glibenclamide. ECGs were also monitored 24 h before ischemia, during ischemia and 24 h after reperfusion. Continuous digital recordings were analyzed offline by using the software ECG-auto (ver 1.5.12.22, EMKA Technologies). ECG signals were digitally filtered between 0.1 and 1,000 Hz. The heart rate and QT interval were measured. The QT interval was defined as the time between the first deviation from an isoelectric PR interval until the return of the ventricular repolarisation to the isoelectric TP baseline from lead II ECGs. The QT interval is dependent on the heart rate, therefore, QT interval should be corrected to take into account potential changes in RR interval. The QT correction was performed according to the Bazett's: formula: […]
# where QTB is the QT interval corrected for heart rate, and RR is the interval from the onset of one QRS complex to the onset of the next QRS complex.
# [2] = test system: rat ventricular cardiomyocytes; experiment: Nitric oxide (NO) measurement, DAF fluorescence in cardiomyocytes; format: cell-based
# [3] = test system: rat ventricular cardiomyocytes; experiment: Ca2+ transient and cell shortening (sarcomere length, indo-1) under field stimulation; format: cell-based; conditions: co-incubation; for effect on reduction of cell shortening and Ca2+ transient amplitude induced by N-Shh: Ccl 30 μM, LY 25 μM, L-NNA 100 μM
# [4] = test system: rat ventricular cardiomyocytes; experiment: Action potential recording, whole-cell patch clamp; format: cell-based; conditions: for effect on APD reduction induced by N-Shh: glibenclamide 1 μM acute, L-NNA, ODQ
# Experimental: Whole-cell patch-clamp experiments were performed at room temperature (22-24° C.) with an Axopatch 200B (Axon instrument, Burlingham, Calif., USA). Patch pipettes had resistance of 2 MΩ. Currents were normalized to the cell membrane capacitance (pA/pF). Series resistances were compensated before recordings.
# To record APs, pipettes solution contained (in mM): KCl (130), HEPES (25), ATP(Mg) (3), GTP(Na) (0.4), EGTA (0.5); pH 7.2 (KOH). Bathing solution contained (in mmol/L): NaCl (135), MgCl2 (1), KCl (4), Glucose (11), HEPES (2), CaCl2 (1.8); pH 7.4 (NaOH). APs were elicited by 0.2 ms current injection of supra-threshold intensity. During experiments, cells were stimulated by trains of 30 stimuli at 0.5 Hz.
# [5] = molecular target: T1, ATP-dependent potassium current (IKATP) (Rattus norvegicus, UniProt P70673+Q63563); experiment: Glibenclamide-sensitive K+ current (IKATP), voltage clamp; format: cell-based
# T1 construct: endogenous in cells; host or cells: isolated adult rat ventricular cardiomyocytes
# [6] = test system: rat model of ischemia reperfusion; experiment: ECG (QTc, ventricular arrhythmias) after 30 min ischemia and 24 h reperfusion; format: in vivo
# Experimental: as §1, with “ECGs.” for “ECGs. The QT interval is dependent on the heart rate, therefore, QT interval should be corrected to take into account potential changes in RR interval. The QT correction was performed according to the Bazett's: formula:”
# The rats were subjected to 30 min ischemia followed by reperfusion. The reperfusion injuries were histologically evaluated at 24 h after reperfusion by measuring the infarcted area relative to the area at risk (FIG. 9). […]
# [7] = test system: rat model of ischemia reperfusion; experiment: Infarct size (infarcted area relative to area at risk) 24 h after reperfusion; format: in vivo; conditions: cyclopamine with N-Shh
# Experimental: The rats were subjected to 30 min ischemia followed by reperfusion. The reperfusion injuries were histologically evaluated at 24 h after reperfusion by measuring the infarcted area relative to the area at risk (FIG. 9). Fifteen minutes prior to reperfusion, one group of rats received intravenous (iv) injection of the recombinant Shh homolog ligand (N-ShhH, 25 μg·kg^−1), the second group received N-Shh and the Shh receptor (patch/smoothened) antagonist cyclopamine (N-Shh+Ccl, 30 μmol/L) and the third one the vehicle (control). […] Considering that the cardio-protective effects are observed within a short time after reperfusion (i.e. <24 h), it is unlikely that they are mediated by a neoangiogenesis and/or mobilization of progenitor cells (Kusano K F, Pola R, Murayama T, Curry C, Kawamoto A, Iwakura A, Shintani S, Ii M, Asai J, Tkebuchava T, Thorne T, Takenaka H, Aikawa R, Goukassian D, von Samson P, Hamada H, Yoon Y S, Silver M, Eaton E, Ma H, Heyd L, Kearney M, Munger W, Porter J A, Kishore R and Losordo D W. Sonic hedgehog myocardial gene therapy: tissue repair through transient reconstitution of embryonic signaling. Nat Med. 2005; 11:1197-204. […]
# [8] = test system: rat model of ischemia reperfusion; experiment: Left ventricular fibrosis, Masson trichrome histology 24 h after reperfusion; format: in vivo
# Experimental: Thin sections (5 μm) were prepared from the rat left ventricles and stained with Haematoxylin-Eosin (HE) and Masson trichrome (MT) for light microscopy (10×). The thickening of the myocardium was estimated on the HE-stained heart sections, and the presence of collagen was analyzed on the MT-stained ventricle sections.
# T1 sequence (P70673 whole entry): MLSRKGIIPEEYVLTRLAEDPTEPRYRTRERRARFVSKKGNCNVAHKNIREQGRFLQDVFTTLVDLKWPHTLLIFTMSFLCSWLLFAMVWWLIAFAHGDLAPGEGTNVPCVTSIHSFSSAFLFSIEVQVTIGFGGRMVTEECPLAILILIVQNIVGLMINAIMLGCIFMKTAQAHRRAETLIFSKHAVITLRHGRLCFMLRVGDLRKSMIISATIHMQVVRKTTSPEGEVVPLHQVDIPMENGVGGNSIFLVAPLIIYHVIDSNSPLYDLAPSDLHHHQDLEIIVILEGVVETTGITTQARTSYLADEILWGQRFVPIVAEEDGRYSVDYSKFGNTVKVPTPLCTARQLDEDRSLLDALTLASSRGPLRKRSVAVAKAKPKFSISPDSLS
# T1 sequence (Q63563 whole entry): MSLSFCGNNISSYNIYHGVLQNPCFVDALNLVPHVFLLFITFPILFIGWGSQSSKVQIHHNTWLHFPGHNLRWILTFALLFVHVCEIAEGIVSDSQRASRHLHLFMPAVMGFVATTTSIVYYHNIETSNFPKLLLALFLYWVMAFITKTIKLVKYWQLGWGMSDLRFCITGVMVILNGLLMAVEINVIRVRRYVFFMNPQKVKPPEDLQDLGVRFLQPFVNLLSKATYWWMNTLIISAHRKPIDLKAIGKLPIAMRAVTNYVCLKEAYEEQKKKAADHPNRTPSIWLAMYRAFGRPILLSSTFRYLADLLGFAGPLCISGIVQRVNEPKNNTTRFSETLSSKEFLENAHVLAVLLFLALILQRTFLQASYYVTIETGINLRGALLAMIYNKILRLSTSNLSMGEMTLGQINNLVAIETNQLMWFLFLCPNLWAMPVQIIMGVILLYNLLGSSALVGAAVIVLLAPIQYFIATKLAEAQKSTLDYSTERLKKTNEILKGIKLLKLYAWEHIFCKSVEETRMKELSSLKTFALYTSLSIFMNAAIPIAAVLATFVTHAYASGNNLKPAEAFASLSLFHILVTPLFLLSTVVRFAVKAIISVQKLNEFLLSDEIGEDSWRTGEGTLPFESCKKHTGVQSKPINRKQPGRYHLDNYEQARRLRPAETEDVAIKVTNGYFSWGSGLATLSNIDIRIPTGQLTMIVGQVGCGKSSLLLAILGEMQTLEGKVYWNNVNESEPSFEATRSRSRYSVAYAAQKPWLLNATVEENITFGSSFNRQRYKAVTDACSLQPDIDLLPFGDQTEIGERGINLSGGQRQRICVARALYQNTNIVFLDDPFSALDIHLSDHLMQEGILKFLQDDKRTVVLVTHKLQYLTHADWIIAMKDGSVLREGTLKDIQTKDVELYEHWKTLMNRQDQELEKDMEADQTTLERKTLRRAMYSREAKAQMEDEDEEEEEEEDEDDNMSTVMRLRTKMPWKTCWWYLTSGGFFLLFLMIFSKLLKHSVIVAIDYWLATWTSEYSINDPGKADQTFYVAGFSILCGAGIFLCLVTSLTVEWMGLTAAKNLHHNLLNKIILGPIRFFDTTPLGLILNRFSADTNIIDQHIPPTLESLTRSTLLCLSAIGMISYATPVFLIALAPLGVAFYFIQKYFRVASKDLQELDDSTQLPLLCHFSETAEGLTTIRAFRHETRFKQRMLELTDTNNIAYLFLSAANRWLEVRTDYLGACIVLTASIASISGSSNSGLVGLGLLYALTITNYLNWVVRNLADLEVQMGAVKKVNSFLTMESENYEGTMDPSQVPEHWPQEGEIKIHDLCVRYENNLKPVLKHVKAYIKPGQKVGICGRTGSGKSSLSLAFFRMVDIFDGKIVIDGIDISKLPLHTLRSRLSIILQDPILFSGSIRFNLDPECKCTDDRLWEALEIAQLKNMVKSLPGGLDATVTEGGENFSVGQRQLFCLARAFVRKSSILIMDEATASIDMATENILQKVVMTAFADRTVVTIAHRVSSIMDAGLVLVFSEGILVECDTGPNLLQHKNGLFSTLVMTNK
Compound,effect on the reduction in QTc interval after Shh injection [1],effect on reduction of cell shortening and Ca2+ transient amplitude induced by N-Shh [3],effect on APD reduction induced by N-Shh [4],effect on IKATP elicited by N-Shh [5],also measured
C[N+](C)(C)CCCCCC[N+](C)(C)C [hexamethonium],identical,,,,
"N=C(NCCC[C@H](N)C(=O)O)N[N+](=O)[O-] [L-NNA, N^ω-nitro-L-arginine]",,fully abolished,blunted,blocked,"effect on N-Shh-induced NO production ([2]; co-incubation with N-Shh, L-NNA 100 μM, LY 25 μM): prevented"
"O=c1onc2cnc3ccccc3n12 [ODQ, 1H-[1.2.4]oxadiazolo[4.3-a]quinoxalin-1-one]",,,blunted,blocked,
CC1=C2C[C@H]3[C@@H](CC=C4C[C@@H](O)CC[C@@]43C)[C@@H]2CC[C@]12O[C@@H]1C[C@H](C)CN[C@H]1[C@H]2C [cyclopamine],prevented,fully abolished,,,"NO production (DAF fluorescence) vs control ([2]; cardiomyocytes incubated 4 h): no effect; effect on NO production induced by Shh-harboring MPs ([2]; pre-/co-incubation, cyclopamine 30 μM): prevented; effect on reduction of cell shortening and Ca2+ transient induced by shed membrane MPs ([3]; cyclopamine 30 μM): blocked; effect on N-Shh prevention of QTc enlargement ([6]; cyclopamine injected in addition to N-Shh): No beneficial effect; also recorded: abolished; effect on Shh reduction of ventricular arrhythmic events ([6]; cyclopamine with N-Shh): abolished; effect on cardioprotective (infarct-reducing) effect of N-Shh [7]: fully abolished; also recorded: fully prevented; effect on Shh prevention of fibrosis [8]: abolished"
COc1ccc(Cl)cc1C(=O)NCCc1ccc(S(=O)(=O)NC(=O)NC2CCCCC2)cc1 [glibenclamide],prevented,,prevented,,effect on APD in the absence of N-Shh treatment ([4]; acute application): no effect

# Source: patent US9987327B2, “Methods for treating myocardial infarction comprising administering sonic hedgehog” (INSERM (INSTITUT NATIONAL DE LA SANTE ET DE EA RECHERCHE …, priority 2013, dated 2018)
